In ChEMBL document CHEMBL1147732, “Novel tacrine-melatonin hybrids as dual-acting drugs for Alzheimer disease, with improved acetylcholinesterase inhibitory and antioxidant properties” (J Med Chem, 2006):

Tests used:
[1] = biological target: Butyrylcholinesterase (Equus caballus, UniProt Q9N1N9)
Description: Inhibition of BuChE from horse serum

[2] = biological target: T1, Acetylcholinesterase (Bos taurus, UniProt P23795)
T1 sequence (P23795 whole entry): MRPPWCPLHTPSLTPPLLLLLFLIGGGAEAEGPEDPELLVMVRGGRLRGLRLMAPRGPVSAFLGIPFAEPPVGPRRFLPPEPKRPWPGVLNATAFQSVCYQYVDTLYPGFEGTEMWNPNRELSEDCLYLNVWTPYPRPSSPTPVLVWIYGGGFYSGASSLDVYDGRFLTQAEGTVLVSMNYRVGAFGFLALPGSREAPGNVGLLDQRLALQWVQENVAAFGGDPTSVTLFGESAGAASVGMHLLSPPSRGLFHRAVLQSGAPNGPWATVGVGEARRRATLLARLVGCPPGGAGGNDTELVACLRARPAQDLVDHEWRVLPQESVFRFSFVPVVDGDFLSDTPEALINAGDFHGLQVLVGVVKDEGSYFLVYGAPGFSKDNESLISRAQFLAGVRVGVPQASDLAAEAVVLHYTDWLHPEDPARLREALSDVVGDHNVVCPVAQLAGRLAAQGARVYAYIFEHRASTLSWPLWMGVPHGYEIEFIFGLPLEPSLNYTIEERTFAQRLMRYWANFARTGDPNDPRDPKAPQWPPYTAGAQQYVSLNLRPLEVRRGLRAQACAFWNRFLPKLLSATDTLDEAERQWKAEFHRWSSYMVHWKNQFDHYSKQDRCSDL
Description: Inhibition of AchE from bovine erythrocytes

[3] = in vitro; settings: pig, PAMPA
Description: Permeability in BBB by PAMPA using a lipid extract of porcine brain

[4] = biological target: Cholinesterase (Homo sapiens, UniProt P06276)
Description: Inhibition of human BuChE

[5] = biological target: Acetylcholinesterase (Homo sapiens, UniProt P22303)
Sequence of Acetylcholinesterase (Homo sapiens, UniProt P22303) (P22303 whole entry): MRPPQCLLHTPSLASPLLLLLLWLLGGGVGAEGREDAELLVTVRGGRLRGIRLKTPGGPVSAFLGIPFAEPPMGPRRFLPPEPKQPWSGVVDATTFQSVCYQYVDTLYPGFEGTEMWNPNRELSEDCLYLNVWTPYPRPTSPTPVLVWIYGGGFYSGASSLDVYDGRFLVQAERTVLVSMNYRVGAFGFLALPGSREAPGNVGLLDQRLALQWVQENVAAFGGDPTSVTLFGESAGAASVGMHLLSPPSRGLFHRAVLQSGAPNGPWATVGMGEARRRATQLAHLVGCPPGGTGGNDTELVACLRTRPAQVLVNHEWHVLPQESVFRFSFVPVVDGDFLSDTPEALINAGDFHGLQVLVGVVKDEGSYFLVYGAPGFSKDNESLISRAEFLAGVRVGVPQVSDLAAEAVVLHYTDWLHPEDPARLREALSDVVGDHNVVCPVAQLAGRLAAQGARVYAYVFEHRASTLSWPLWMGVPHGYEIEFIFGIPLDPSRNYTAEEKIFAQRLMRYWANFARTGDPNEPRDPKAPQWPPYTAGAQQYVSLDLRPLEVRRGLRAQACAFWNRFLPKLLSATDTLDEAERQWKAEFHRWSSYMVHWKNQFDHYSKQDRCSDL

Sequence of Butyrylcholinesterase (Q9N1N9 whole entry): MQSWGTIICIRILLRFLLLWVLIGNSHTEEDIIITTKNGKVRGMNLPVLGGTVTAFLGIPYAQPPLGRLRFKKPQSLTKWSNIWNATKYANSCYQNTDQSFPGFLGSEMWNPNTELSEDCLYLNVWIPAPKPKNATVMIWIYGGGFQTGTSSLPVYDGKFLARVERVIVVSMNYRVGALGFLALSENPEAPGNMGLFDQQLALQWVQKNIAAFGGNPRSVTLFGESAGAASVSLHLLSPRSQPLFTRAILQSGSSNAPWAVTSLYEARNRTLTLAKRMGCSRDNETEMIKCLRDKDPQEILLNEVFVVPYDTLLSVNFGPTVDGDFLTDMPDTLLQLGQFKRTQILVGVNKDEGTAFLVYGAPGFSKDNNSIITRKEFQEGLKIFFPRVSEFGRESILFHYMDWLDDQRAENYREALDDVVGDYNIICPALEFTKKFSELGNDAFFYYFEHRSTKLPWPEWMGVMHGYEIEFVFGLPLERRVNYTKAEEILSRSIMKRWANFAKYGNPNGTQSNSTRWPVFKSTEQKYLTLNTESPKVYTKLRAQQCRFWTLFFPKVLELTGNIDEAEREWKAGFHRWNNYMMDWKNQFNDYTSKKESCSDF
Sequence of Cholinesterase (P06276 whole entry): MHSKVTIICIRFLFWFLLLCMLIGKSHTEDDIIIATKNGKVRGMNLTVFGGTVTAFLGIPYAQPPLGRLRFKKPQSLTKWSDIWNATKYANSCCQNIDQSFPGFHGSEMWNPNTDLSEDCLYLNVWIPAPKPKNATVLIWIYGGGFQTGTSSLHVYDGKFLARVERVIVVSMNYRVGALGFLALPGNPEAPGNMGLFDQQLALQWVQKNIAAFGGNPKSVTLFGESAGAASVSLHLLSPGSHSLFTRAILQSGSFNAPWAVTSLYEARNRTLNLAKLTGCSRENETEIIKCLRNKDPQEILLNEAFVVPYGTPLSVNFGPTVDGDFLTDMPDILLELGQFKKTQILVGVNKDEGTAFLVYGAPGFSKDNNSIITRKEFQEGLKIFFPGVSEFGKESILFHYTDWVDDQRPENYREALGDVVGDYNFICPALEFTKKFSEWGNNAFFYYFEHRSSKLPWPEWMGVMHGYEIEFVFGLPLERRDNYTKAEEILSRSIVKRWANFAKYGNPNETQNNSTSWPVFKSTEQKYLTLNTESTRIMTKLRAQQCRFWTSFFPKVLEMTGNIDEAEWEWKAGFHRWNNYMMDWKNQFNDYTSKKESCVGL

COc1ccc2[nH]cc(CCNC(=O)CCCCCNc3c4c(nc5ccccc35)CCCC4)c2c1
IC50 [1]: 2 nM | IC50 [2]: 9 nM | Papp [3]: 77 nm/s

O=C(CCCCCNc1c2c(nc3cc(Cl)cc(Cl)c13)CCCC2)NCCc1c[nH]c2ccccc12
IC50 [1]: 8.2 nM | IC50 [2]: 3.5 nM | Papp [3]: 84 nm/s

O=C(CCCCCCNc1c2c(nc3cc(Cl)cc(Cl)c13)CCCC2)NCCc1c[nH]c2ccccc12
IC50 [4]: 7.8 nM | IC50 [5]: 0.008 nM | IC50 [1]: 85 nM | IC50 [2]: 2 nM

O=C(CCCCCCNc1c2c(nc3ccccc13)CCCC2)NCCc1c[nH]c2ccccc12
IC50 [4]: 6.8 nM | IC50 [5]: 0.5 nM | IC50 [1]: 0.95 nM | IC50 [2]: 1 nM | Papp [3]: 92 nm/s

COc1ccc2[nH]cc(CCNC(=O)CCCCCNc3c4c(nc5cc(Cl)ccc35)CCCC4)c2c1
IC50 [1]: 55 nM | IC50 [2]: 12 nM

O=C(CCCCCNc1c2c(nc3ccccc13)CCCC2)NCCc1c[nH]c2ccccc12
IC50 [1]: 12 nM | IC50 [2]: 4 nM | Papp [3]: 110 nm/s

COc1ccc2[nH]cc(CCNC(=O)CCCCCNc3c4c(nc5cccc(Cl)c35)CCCC4)c2c1
IC50 [1]: 22 nM | IC50 [2]: 25 nM | Papp [3]: 89 nm/s

O=C(CCCCCNc1c2c(nc3cccc(Cl)c13)CCCC2)NCCc1c[nH]c2ccccc12
IC50 [4]: 23 nM | IC50 [5]: 0.87 nM | IC50 [1]: 15 nM | IC50 [2]: 65 nM | Papp [3]: 52 nm/s

O=C(CCCCCNc1c2c(nc3ccccc13)CCCC2)NCCc1c[nH]c2ccc(O)cc12
IC50 [4]: 1 nM | IC50 [5]: 0.45 nM | IC50 [1]: 3.5 nM | IC50 [2]: 35 nM | Papp [3]: 20 nm/s

COc1ccc2[nH]cc(CCNC(=O)CCCCCCNc3c4c(nc5cc(Cl)cc(Cl)c35)CCCC4)c2c1
IC50 [4]: 25 nM | IC50 [5]: 0.04 nM | IC50 [1]: 100 nM | IC50 [2]: 5 nM

O=C(CCCCCCNc1c2c(nc3cc(Cl)ccc13)CCCC2)NCCc1c[nH]c2ccccc12
IC50 [4]: 35 nM | IC50 [5]: 0.1 nM | IC50 [1]: 8.1 nM | IC50 [2]: 0.2 nM

COc1ccc2[nH]cc(CCNC(=O)CCCCCCNc3c4c(nc5ccccc35)CCCC4)c2c1
IC50 [4]: 3 nM | IC50 [5]: 0.65 nM | IC50 [1]: 2.5 nM | IC50 [2]: 2.3 nM | Papp [3]: 86 nm/s

O=C(CCCCCNc1c2c(nc3cc(Cl)ccc13)CCCC2)NCCc1c[nH]c2ccccc12
IC50 [1]: 5.2 nM | IC50 [2]: 2 nM | Papp [3]: 77 nm/s

COc1ccc2[nH]cc(CCNC(C)=O)c2c1 [MELATONIN]
IC50 [1]: > 100 nM | IC50 [2]: > 100 nM
